Experimental data reported in PubChem BioAssay (NCI).
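Each compound was tested at five concentrations against cells in 96-well plates for 48 hours. GI50 = concentration required for 50% inhibition of growth. Definition used: TGI = concentration required for complete inhibition of growth.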

What was measured:
Test in all cases: NCI anticancer screen, dose series, 48 h
786-0 renal = tested on: 786-0 renal
A498 renal = tested on: A498 renal
A549 NSCLC = tested on: A549 NSCLC
ACHN renal = tested on: ACHN renal
BT-549 breast = tested on: BT-549 breast
CAKI-1 renal = tested on: CAKI-1 renal
CCRF-CEM leukemia = tested on: CCRF-CEM leukemia
COLO 205 colon = tested on: COLO 205 colon
DU-145 prostate = tested on: DU-145 prostate
HCC-2998 colon = tested on: HCC-2998 colon
HCT-116 colon = tested on: HCT-116 colon
HCT-15 colon = tested on: HCT-15 colon
HL-60(TB) leukemia = tested on: HL-60(TB) leukemia
HOP-62 NSCLC = tested on: HOP-62 NSCLC
HOP-92 NSCLC = tested on: HOP-92 NSCLC
HS 578T breast = tested on: HS 578T breast
HT29 colon = tested on: HT29 colon
IGROV1 ovarian = tested on: IGROV1 ovarian
K-562 leukemia = tested on: K-562 leukemia
KM12 colon = tested on: KM12 colon
LOX IMVI melanoma = tested on: LOX IMVI melanoma
M14 melanoma = tested on: M14 melanoma
MALME-3M melanoma = tested on: MALME-3M melanoma
MCF7 breast = tested on: MCF7 breast
MDA-MB-231 breast = tested on: MDA-MB-231 breast
MOLT-4 leukemia = tested on: MOLT-4 leukemia
NCI-H226 lung = tested on: NCI-H226 lung
NCI-H23 lung = tested on: NCI-H23 lung
NCI-H460 lung = tested on: NCI-H460 lung
NCI-H522 lung = tested on: NCI-H522 lung
NCI/ADR-RES ovarian = tested on: NCI/ADR-RES ovarian
OVCAR-3 ovarian = tested on: OVCAR-3 ovarian
OVCAR-4 ovarian = tested on: OVCAR-4 ovarian
OVCAR-5 ovarian = tested on: OVCAR-5 ovarian
OVCAR-8 ovarian = tested on: OVCAR-8 ovarian
PC-3 prostate = tested on: PC-3 prostate
RPMI-8226 leukemia = tested on: RPMI-8226 leukemia
RXF 393 renal = tested on: RXF 393 renal
SF-268 CNS = tested on: SF-268 CNS
SF-295 CNS = tested on: SF-295 CNS
SF-539 CNS = tested on: SF-539 CNS
SK-MEL-2 melanoma = tested on: SK-MEL-2 melanoma
SK-MEL-28 melanoma = tested on: SK-MEL-28 melanoma
SK-MEL-5 melanoma = tested on: SK-MEL-5 melanoma
SK-OV-3 ovarian = tested on: SK-OV-3 ovarian
SN12C renal = tested on: SN12C renal
SNB-19 CNS = tested on: SNB-19 CNS
SNB-75 CNS = tested on: SNB-75 CNS
SR leukemia = tested on: SR leukemia
SW-620 colon = tested on: SW-620 colon
T-47D breast = tested on: T-47D breast
TK-10 renal = tested on: TK-10 renal
U251 CNS = tested on: U251 CNS
UACC-62 melanoma = tested on: UACC-62 melanoma
UO-31 renal = tested on: UO-31 renal

SMILES: Nc1c(C(=O)Nc2cccc(F)c2)sc2nc3c(cc12)C(=O)CCC3
- GI50 (786-0 renal): 595 nM
- TGI (786-0 renal): > 100000 nM
- GI50 (A498 renal): 27.4 nM
- TGI (A498 renal): > 100000 nM
- GI50 (A549 NSCLC): 378 nM
- TGI (A549 NSCLC): > 100000 nM
- GI50 (ACHN renal): 842 nM
- TGI (ACHN renal): > 100000 nM
- GI50 (BT-549 breast): 3710 nM
- TGI (BT-549 breast): > 100000 nM
- GI50 (CAKI-1 renal): 387 nM
- TGI (CAKI-1 renal): > 100000 nM
- GI50 (CCRF-CEM leukemia): 341 nM
- TGI (CCRF-CEM leukemia): > 100000 nM
- GI50 (COLO 205 colon): 273 nM
- TGI (COLO 205 colon): 751 nM
- GI50 (DU-145 prostate): 354 nM
- TGI (DU-145 prostate): > 100000 nM
- GI50 (HCC-2998 colon): 1010 nM
- TGI (HCC-2998 colon): > 100000 nM
- GI50 (HCT-116 colon): 447 nM
- TGI (HCT-116 colon): > 100000 nM
- GI50 (HCT-15 colon): 298 nM
- TGI (HCT-15 colon): > 100000 nM
- GI50 (HL-60(TB) leukemia): 322 nM
- TGI (HL-60(TB) leukemia): > 100000 nM
- GI50 (HOP-62 NSCLC): 685 nM
- TGI (HOP-62 NSCLC): > 100000 nM
- GI50 (HOP-92 NSCLC): 589 nM
- TGI (HOP-92 NSCLC): > 100000 nM
- GI50 (HS 578T breast): 634 nM
- TGI (HS 578T breast): > 100000 nM
- GI50 (HT29 colon): 307 nM
- TGI (HT29 colon): > 100000 nM
- GI50 (IGROV1 ovarian): 3020 nM
- TGI (IGROV1 ovarian): > 100000 nM
- GI50 (K-562 leukemia): 160 nM
- TGI (K-562 leukemia): > 75000 nM
- GI50 (KM12 colon): 384 nM
- TGI (KM12 colon): > 100000 nM
- GI50 (LOX IMVI melanoma): 772 nM
- TGI (LOX IMVI melanoma): > 100000 nM
- GI50 (M14 melanoma): 397 nM
- TGI (M14 melanoma): > 100000 nM
- GI50 (MALME-3M melanoma): 377 nM
- TGI (MALME-3M melanoma): > 100000 nM
- GI50 (MCF7 breast): 304 nM
- TGI (MCF7 breast): > 100000 nM
- GI50 (MDA-MB-231 breast): 1670 nM
- TGI (MDA-MB-231 breast): > 75200 nM
- GI50 (MOLT-4 leukemia): 21900 nM
- TGI (MOLT-4 leukemia): > 100000 nM
- GI50 (NCI-H226 lung): > 90100 nM
- TGI (NCI-H226 lung): > 100000 nM
- GI50 (NCI-H23 lung): 608 nM
- TGI (NCI-H23 lung): > 100000 nM
- GI50 (NCI-H460 lung): 356 nM
- TGI (NCI-H460 lung): > 100000 nM
- GI50 (NCI-H522 lung): 371 nM
- TGI (NCI-H522 lung): > 100000 nM
- GI50 (NCI/ADR-RES ovarian): 487 nM
- TGI (NCI/ADR-RES ovarian): > 100000 nM
- GI50 (OVCAR-3 ovarian): 351 nM
- TGI (OVCAR-3 ovarian): > 100000 nM
- GI50 (OVCAR-4 ovarian): > 55100 nM
- TGI (OVCAR-4 ovarian): > 100000 nM
- GI50 (OVCAR-5 ovarian): 2240 nM
- TGI (OVCAR-5 ovarian): > 100000 nM
- GI50 (OVCAR-8 ovarian): 31100 nM
- TGI (OVCAR-8 ovarian): > 100000 nM
- GI50 (PC-3 prostate): 347 nM
- TGI (PC-3 prostate): > 100000 nM
- GI50 (RPMI-8226 leukemia): > 34500 nM
- TGI (RPMI-8226 leukemia): > 100000 nM
- GI50 (RXF 393 renal): 248 nM
- GI50 (SF-268 CNS): 37000 nM
- TGI (SF-268 CNS): > 100000 nM
- GI50 (SF-295 CNS): 245 nM
- TGI (SF-295 CNS): > 80000 nM
- GI50 (SF-539 CNS): 287 nM
- TGI (SF-539 CNS): > 100000 nM
- GI50 (SK-MEL-2 melanoma): 492 nM
- TGI (SK-MEL-2 melanoma): > 81600 nM
- GI50 (SK-MEL-28 melanoma): 20500 nM
- TGI (SK-MEL-28 melanoma): > 100000 nM
- GI50 (SK-MEL-5 melanoma): 391 nM
- TGI (SK-MEL-5 melanoma): > 100000 nM
- GI50 (SK-OV-3 ovarian): 436 nM
- TGI (SK-OV-3 ovarian): > 100000 nM
- GI50 (SN12C renal): 743 nM
- TGI (SN12C renal): > 100000 nM
- GI50 (SNB-19 CNS): 29500 nM
- TGI (SNB-19 CNS): > 100000 nM
- GI50 (SNB-75 CNS): 339 nM
- TGI (SNB-75 CNS): > 56500 nM
- GI50 (SR leukemia): 481 nM
- TGI (SR leukemia): > 70600 nM
- GI50 (SW-620 colon): 350 nM
- TGI (SW-620 colon): > 100000 nM
- TGI (T-47D breast): > 100000 nM
- GI50 (TK-10 renal): > 100000 nM
- TGI (TK-10 renal): > 100000 nM
- GI50 (U251 CNS): 488 nM
- TGI (U251 CNS): > 69000 nM
- GI50 (UACC-62 melanoma): 491 nM
- TGI (UACC-62 melanoma): > 100000 nM
- TGI (UO-31 renal): > 100000 nM
